# Laboratory results: patent US8980888B2, “Pyrazole derivative” (Mochida Pharmaceutical Co., Ltd., priority 2013, dated 2015)
# Target: T1, Human PDE10 (Homo sapiens, UniProt Q9Y233)
# T1 construct: purchased BPA Bioscience (so in the source)
# Test: Human PDE10 inhibitory effect (IMAP TR-FRET enzyme inhibition assay)
# Assay type: biochemical
# Conditions: PDE10 inhibitory activity, cAMP substrate
# Method: (Evaluation of Enzyme Inhibitory Activity: Human PDE10 Inhibitory Effect)
# IMAP TR-FRET Phosphodiersterase Evaluation Assay Kit (Molecular Device) was used for the measurement. Ten μL of a diluted test compound having each concentration and 5 μL of the enzyme PDE10 (BPA Bioscience) that had been diluted to 2 ng/mL with 1×IMAP Reaction Buffer (prepared with 5× included with the kit, 10 mM Tris-HCl, pH=7.2, 10 mM MgCl2, 0.05% NaN3, and 0.1% BSA) containing 0.1% BSA were added to a 384-well plate (Corning). The obtained mixture was then pre-incubated at room temperature for 5 minutes. Thereafter, 5 μL of cAMP substrate solution which was included with the kit and diluted to 400 nM with 1×IMAP Reaction Buffer containing 0.1% BSA, was added to the reaction solution, and the obtained mixture was reacted at room temperature for 60 minutes. Thereafter, 60 μL of an IMAP TR-FRET Binding solution included with the kit was further added to the reaction solution, and the obtained mixture was then left for 3 hours or more. Subsequently, using ARVO SX (PerkinElmer), the fluorescent intensity of Terbium (Emission=490 nm) and TR-FRET (Emission=520 nm) in the reaction solution were measured at an excitation wavelength of 340 nm, so as to calculate the amount of the generated 5′-AMP. The count of a well to which a solvent had been added instead of the test compound was set at 0%, and the count of a well to which the enzyme PDE10 had not been added was set at 100%. Thus, the inhibitory activity of each test compound was calculated.
# The PDE10 inhibitory activity of the test compound was indicated with an IC50 value. […] The test compounds are shown in Table 3 (Table 3-1 and Table 3-2).
# T1 sequence (Q9Y233 whole entry): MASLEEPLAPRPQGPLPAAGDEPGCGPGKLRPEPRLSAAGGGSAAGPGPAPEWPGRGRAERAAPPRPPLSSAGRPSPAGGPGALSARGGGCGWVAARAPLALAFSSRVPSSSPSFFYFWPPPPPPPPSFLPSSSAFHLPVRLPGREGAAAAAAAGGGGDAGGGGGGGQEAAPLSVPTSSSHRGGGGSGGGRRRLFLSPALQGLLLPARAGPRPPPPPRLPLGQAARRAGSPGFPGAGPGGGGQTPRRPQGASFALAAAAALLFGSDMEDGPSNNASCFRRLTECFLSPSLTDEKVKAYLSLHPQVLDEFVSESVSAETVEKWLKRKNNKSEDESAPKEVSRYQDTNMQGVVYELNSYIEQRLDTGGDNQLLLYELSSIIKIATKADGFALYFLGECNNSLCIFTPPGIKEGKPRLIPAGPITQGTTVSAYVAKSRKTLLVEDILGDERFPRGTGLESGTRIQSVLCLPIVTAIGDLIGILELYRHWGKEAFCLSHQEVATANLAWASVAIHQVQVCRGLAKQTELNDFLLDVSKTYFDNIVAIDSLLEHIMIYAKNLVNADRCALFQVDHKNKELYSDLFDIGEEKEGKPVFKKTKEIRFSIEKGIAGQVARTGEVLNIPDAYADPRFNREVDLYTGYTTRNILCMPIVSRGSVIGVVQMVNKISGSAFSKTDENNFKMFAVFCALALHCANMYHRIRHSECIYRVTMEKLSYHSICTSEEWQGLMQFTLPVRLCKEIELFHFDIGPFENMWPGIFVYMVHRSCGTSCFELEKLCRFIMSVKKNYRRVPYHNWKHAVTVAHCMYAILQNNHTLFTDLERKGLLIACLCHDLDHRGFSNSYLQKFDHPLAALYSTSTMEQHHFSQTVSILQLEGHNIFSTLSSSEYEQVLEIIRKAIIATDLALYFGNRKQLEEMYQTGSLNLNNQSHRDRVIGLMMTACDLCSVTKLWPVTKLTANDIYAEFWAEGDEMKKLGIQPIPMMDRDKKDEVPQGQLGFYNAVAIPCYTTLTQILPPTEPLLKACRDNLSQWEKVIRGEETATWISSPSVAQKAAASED
row,IC50,Compound
1,5 to 100 nM,"Cn1ncc(-c2nc(C#N)cs2)c1C(=O)NC1CCn2nc(-c3ccccc3)nc2C1 (stereo not drawn) [Example 5.10, 4-(4-cyanothiazol-2-yl)-1-methyl-N-(2-phenyl-5,6,7,8-tetrahydro-[1,2,4]triazolo[1,5-a]pyridin-7-yl)-1H-pyrazole-5-carboxamide]"
2,5 to 100 nM,"Cn1ncc(-c2nc(C(C)(C)C)cs2)c1C(=O)NC1CCn2cc(-c3ccccc3)nc2C1 (stereo not drawn) [Example 2.27, 4-(4-(tert-butyl)thiazol-2-yl)-1-methyl-N-(2-phenyl-5,6,7,8-tetrahydroimidazo[1,2-a]pyridin-7-yl)-1H-pyrazole-5-carboxamide]"
3,5 to 100 nM,"Cn1ncc(-c2cscn2)c1C(=O)NC1CCn2cc(-c3ccccc3)nc2C1 (stereo not drawn) [Example 2.25, 1-methyl-N-(2-phenyl-5,6,7,8-tetrahydroimidazo[1,2-a]pyridin-7-yl)-4-(thiazol-4-yl)-1H-pyrazole-5-carboxamide]"
4,5 to 100 nM,"CC(=O)c1sc(C)nc1-c1cnn(C)c1C(=O)NC1CCn2nc(-c3cccc(F)c3)nc2C1 (stereo not drawn) [Example 5.44, 4-(5-acetyl-2-methylthiazol-4-yl)-N-(2-(3-fluorophenyl)-5,6,7,8-tetrahydro-[1,2,4]triazolo[1,5-a]pyridin-7-yl)-1-methyl-1H-pyrazole-5-carboxamide]"
5,< 5 nM,"Cc1cccnc1-c1cnn(C)c1C(=O)Nc1cc2nc(-c3ccccc3)nn2cc1F [Example 3.1, N-(6-fluoro-2-phenyl-[1,2,4]triazolo[1,5-a]pyridin-7-yl)-1-methyl-4-(3-methylpyridin-2-yl)-1H-pyrazole-5-carboxamide]"
6,< 5 nM,"Cc1sc(-c2cnn(C)c2C(=O)NC2CCn3nc(-c4ccccc4)nc3C2)nc1C(F)F (stereo not drawn) [Example 5.1, 4-(4-(difluoromethyl)-5-methylthiazol-2-yl)-1-methyl-N-(2-phenyl-5,6,7,8-tetrahydro-[1,2,4]triazolo[1,5-a]pyridin-7-yl)-1H-pyrazole-5-carboxamide]"
7,5 to 100 nM,"Cn1cnc(-c2cnn(C)c2C(=O)NC2CCn3cc(-c4ccccc4)nc3C2)c1 (stereo not drawn) [Example 2.17, 1-methyl-4-(1-methyl-1H-imidazol-4-yl)-N-(2-phenyl-5,6,7,8-tetrahydroimidazo[1,2-a]pyridin-7-yl)-1H-pyrazole-5-carboxamide]"
8,< 5 nM,"Cc1nnc(-c2cnn(C)c2C(=O)NC2CCn3cc(-c4ccccc4)nc3C2)s1 (stereo not drawn) [Example 2.10, 1-methyl-4-(5-methyl-1,3,4-thiadiazol-2-yl)-N-(2-phenyl-5,6,7,8-tetrahydroimidazo[1,2-a]pyridin-7-yl)-1H-pyrazole-5-carboxamide]"
9,< 5 nM,"Cn1ncc(-c2nc(C(F)(F)F)cs2)c1C(=O)NC1CCn2nc(N3CCCC3)nc2C1 (stereo not drawn) [Example 5.46, 1-methyl-N-(2-(pyrrolidin-1-yl)-5,6,7,8-tetrahydro-[1,2,4]triazolo[1,5-a]pyridin-7-yl)-4-(4-(trifluoromethyl)thiazol-2-yl)-1H-pyrazole-5-carboxamide]"
10,5 to 100 nM,"Cc1ccc(-c2cnn(C)c2C(=O)NC2CCn3cc(-c4ccccc4)nc3C2)nc1 (stereo not drawn) [Example 2.21, 1-methyl-4-(5-methylpyridin-2-yl)-N-(2-phenyl-5,6,7,8-tetrahydroimidazo[1,2-a]pyridin-7-yl)-1H-pyrazole-5-carboxamide]"
11,5 to 100 nM,"Cn1ncc(-c2nc(C(F)F)c(C3CC3)s2)c1C(=O)NC1CCn2nc(-c3ccccc3)nc2C1 (stereo not drawn) [Example 5.8, 4-(5-cyclopropyl-4-(difluoromethyl)thylthiazol-2-yl)-1-methyl-N-(2-phenyl-5,6,7,8-tetrahydro-[1,2,4]triazolo[1,5-a]pyridin-7-yl)-1H-pyrazole-5-carboxamide]"
12,5 to 100 nM,"Cc1nc(-c2cnn(C)c2C(=O)NC2CCn3nc(-c4ccc(F)cc4)nc3C2)sc1C1CC1 (stereo not drawn) [Example 5.43, 4-(5-cyclopropyl-4-methylthiazol-2-yl)-N-(2-(4-fluorophenyl)-5,6,7,8-tetrahydro-[1,2,4]triazolo[1,5-a]pyridin-7-yl)-1-methyl-1H-pyrazole-5-carboxamide]"
13,5 to 100 nM,"Cn1ncc(-c2ncccc2C#N)c1C(=O)NC1CCn2nc(-c3ccccc3)nc2C1 (stereo not drawn) [Example 5.27, 4-(3-cyanopyridin-2-yl)-1-methyl-N-(2-phenyl-5,6,7,8-tetrahydro-[1,2,4]triazolo[1,5-a]pyridin-7-yl)-1H-pyrazole-5-carboxamide]"
14,< 5 nM,"COc1cc(-c2cnn(C)c2C(=O)Nc2cc3nc(-c4ccccc4)nn3cc2F)nc(OC)n1 [Example 3.40, 4-(2,6-dimethoxypyrimidin-4-yl)-N-(6-fluoro-2-phenyl-[1,2,4]triazolo[1,5-a]pyridin-7-yl)-1-methyl-1H-pyrazole-5-carboxamide]"
15,5 to 100 nM,"Cn1ncc(-c2cccc(C#N)n2)c1C(=O)NC1CCn2nc(-c3ccccc3)nc2C1 (stereo not drawn) [Example 5.40, 4-(6-cyanopyridin-2-yl)-1-methyl-N-(2-phenyl-5,6,7,8-tetrahydro-[1,2,4]triazolo[1,5-a]pyridin-7-yl)-1H-pyrazole-5-carboxamide]"
16,5 to 100 nM,"Cn1ncc(-c2nc(C(F)F)cs2)c1C(=O)NC1CCn2nc(-c3cccc(F)c3)nc2C1 (stereo not drawn) [Example 5.33, 4-(4-(difluoromethyl)thiazol-2-yl)-N-(2-(3-fluorophenyl)-5,6,7,8-tetrahydro-[1,2,4]triazolo[1,5-a]pyridin-7-yl)-1-methyl-1H-pyrazole-5-carboxamide]"
17,< 5 nM,C[C@H]1CCCN1c1nc2cc(NC(=O)c3c(-c4nc(C(F)(F)F)cs4)cnn3C)ccn2n1 [Example 4.10]
18,5 to 100 nM,"Cn1ncc(-c2nc(C(F)F)cs2)c1C(=O)NC1CCn2nc(-c3ccc(F)cc3)nc2C1 (stereo not drawn) [Example 5.2, 4-(4-(difluoromethyl)thiazol-2-yl)-N-(2-(4-fluorophenyl)-5,6,7,8-tetrahydro-[1,2,4]triazolo[1,5-a]pyridin-7-yl)-1-methyl-1H-pyrazole-5-carboxamide]"
19,< 5 nM,"Cc1nc(-c2cnn(C)c2C(=O)NC2CCn3cc(-c4ccccc4)nc3C2)sc1C (stereo not drawn) [Example 2.2, 4-(4,5-dimethylthiazol-2-yl)-1-methyl-N-(2-phenyl-5,6,7,8-tetrahydroimidazo[1,2-a]pyridin-7-yl)-1H-pyrazole-5-carboxamide]"
20,5 to 100 nM,"Cc1nc(-c2cnn(C)c2C(=O)NC2CCn3nc(-c4ccccc4)nc3C2)c(C(C)O)s1 (stereo not drawn) [Example 5.31, 4-(5-(1-hydroxyethyl)-2-methylthiazol-4-yl)-1-methyl-N-(2-phenyl-5,6,7,8-tetrahydro-[1,2,4]triazolo[1,5-a]pyridin-7-yl)-1H-pyrazole-5-carboxamide]"
21,5 to 100 nM,"Cc1nsc(-c2cnn(C)c2C(=O)NC2CCn3nc(-c4ccccc4)nc3C2)n1 (stereo not drawn) [Example 5.15, 1-methyl-4-(3-methyl-1,2,4-thiadiazol-5-yl)-N-(2-phenyl-5,6,7,8-tetrahydro-[1,2,4]triazolo[1,5-a]pyridin-7-yl)-1H-pyrazole-5-carboxamide]"
22,< 5 nM,"Cc1ccnc(-c2cnn(C)c2C(=O)Nc2cc3nc(-c4ccccc4)nn3cc2F)c1 [Example 3.5, N-(6-fluoro-2-phenyl-[1,2,4]triazolo[1,5-a]pyridin-7-yl)-1-methyl-4-(4-methylpyridin-2-yl)-1H-pyrazole-5-carboxamide]"
23,< 5 nM,"C[C@H]1CCCN1c1nc2cc(NC(=O)c3c(-c4cccc(C(F)(F)F)n4)cnn3C)ccn2n1 [Example 4.3, (S)-1-methyl-N-(2-(2-methylpyrrolidin-1-yl)-[1,2,4]triazolo[1,5-a]pyridin-7-yl)-4-(6-(trifluoromethyl)pyridin-2-yl)-1H-pyrazole-5-carboxamide]"
24,5 to 100 nM,"Cc1nc(-c2cnn(C)c2C(=O)NC2CCn3nc(-c4ccccc4)nc3C2)c(C)s1 (stereo not drawn) [Example 5.39, 4-(2,5-dimethylthiazol-4-yl)-1-methyl-N-(2-phenyl-5,6,7,8-tetrahydro-[1,2,4]triazolo[1,5-a]pyridin-7-yl)-1H-pyrazole-5-carboxamide]"
25,5 to 100 nM,"CCOCCc1sc(-c2cnn(C)c2C(=O)NC2CCn3nc(-c4ccccc4)nc3C2)nc1C (stereo not drawn) [Example 5.11, 4-(5-(2-ethoxyethyl)-4-methylthiazol-2-yl)-1-methyl-N-(2-phenyl-5,6,7,8-tetrahydro-[1,2,4]triazolo[1,5-a]pyridin-7-yl)-1H-pyrazole-5-carboxamide]"
26,< 5 nM,"Cc1cc(C)nc(-c2cnn(C)c2C(=O)Nc2ccn3nc(N4CC[C@H](F)C4)nc3c2)c1 [Example 4.20, (S)-4-(4,6-dimethylpyridin-2-yl)-N-(2-(3-fluoropyrrolidin-1-yl)-[1,2,4]triazolo[1,5-a]pyridin-7-yl)-1-methyl-1H-pyrazole-5-carboxamide]"
27,< 5 nM,"Cc1ncc(C)c(-c2cnn(C)c2C(=O)Nc2cc3nc(-c4ccccc4C)nn3cc2F)n1 [Example 3.50, 4-(2,5-dimethylpyrimidin-4-yl)-N-(6-fluoro-2-(o-tolyl)-[1,2,4]triazolo[1,5-a]pyridin-7-yl)-1-methyl-1H-pyrazole-5-carboxamide]"
